Experimental data: ChEMBL document CHEMBL1201862, “PubChem BioAssay data set” (2004)
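These data come from cells grown in 96-well plates and exposed to compound for 48 hours at five concentrations. At the GI50, growth is halved.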 The source made the active and inactive calls. No stated cut-off is given here; in the data, active = GI50 up to about 1.1 µM and inactive = higher.

Tests used:
Assay in all cases: inhibition of tumour cell growth, NCI panel, 48 h
A549 = system: A549
ACHN = system: ACHN
CAKI-1 = system: CAKI-1
CCRF-CEM = system: CCRF-CEM
EKVX = system: EKVX
HCC 2998 = system: HCC 2998
HCT-15 = system: HCT-15
HL-60 = system: HL-60
K562 = system: K562
KM12 = system: KM12
NCI-H226 = system: NCI-H226
NCI-H522 = system: NCI-H522
RXF 393 = system: RXF 393
SF-539 = system: SF-539
SNB-75 = system: SNB-75
TK-10 = system: TK-10
UO-31 = system: UO-31

Measured: GI50

CCN(CC)C1CC(O[C@H]2C[C@](O)(C(=O)CO)Cc3c(O)c4c(c(O)c32)C(=O)c2c(OC)cccc2C4=O)OC(C)C1O (some centres undefined)
0.245 µM: HCT-15
active: A549 0.0395 µM | ACHN 0.0316 µM | CAKI-1 0.232 µM | CCRF-CEM 0.122 µM | EKVX 0.082 µM | HCC 2998 0.0948 µM | HL-60 0.106 µM | K562 0.0264 µM | KM12 0.0577 µM | NCI-H226 0.019 µM | NCI-H522 < 0.0256 µM | RXF 393 0.0446 µM | SF-539 0.0461 µM | SNB-75 0.028 µM | TK-10 0.0881 µM | UO-31 0.0604 µM

CCOC(OCC)(OCC)C(Br)CC (centres undefined)
> 10 µM: HCT-15
inactive: A549 > 100 µM | ACHN > 100 µM | CAKI-1 > 100 µM | CCRF-CEM 28.2 µM | EKVX > 100 µM | HCC 2998 > 100 µM | HL-60 > 100 µM | K562 > 100 µM | KM12 > 100 µM | NCI-H226 > 100 µM | NCI-H522 > 100 µM | RXF 393 > 100 µM | SF-539 > 100 µM | SNB-75 > 100 µM | TK-10 > 100 µM | UO-31 > 100 µM

CC/C=C/c1cc2c(c3[nH]ccc13)[C@@H](C)CC2C.CC/C=C/c1cc2cc[nH]c2c2c1C(C)C[C@@H]2C.CCc1cc2c(c3[nH]ccc13)[C@@H](C)CC2C (some centres undefined)
inactive: A549 21.4 µM | ACHN 16.2 µM | CAKI-1 15.1 µM | EKVX 18.4 µM | HCC 2998 3.08 µM | HL-60 18.3 µM | KM12 16.8 µM | NCI-H226 15.2 µM | NCI-H522 15.6 µM | RXF 393 12.2 µM | SF-539 16.1 µM | SNB-75 10 µM | TK-10 22.1 µM | UO-31 16.6 µM

CCCNC(=O)c1cc2ccccc2cc1C(=O)OC
> 100 µM: HCT-15
inactive: A549 > 100 µM | ACHN 78.2 µM | CAKI-1 > 100 µM | CCRF-CEM > 100 µM | EKVX > 100 µM | HCC 2998 > 100 µM | HL-60 > 100 µM | K562 > 100 µM | KM12 > 100 µM | NCI-H226 83.4 µM | NCI-H522 > 100 µM | SF-539 > 100 µM | SNB-75 19.3 µM | TK-10 > 100 µM | UO-31 58.5 µM

[O-][S+](Cc1cc2c(cc1Br)OCO2)c1ccccc1 (centres undefined)
34.4 µM: HCT-15
inactive: A549 > 100 µM | ACHN 64.6 µM | CAKI-1 51.5 µM | CCRF-CEM 19.6 µM | EKVX > 100 µM | HCC 2998 > 100 µM | HL-60 21.4 µM | K562 27.5 µM | KM12 17.9 µM | NCI-H226 > 100 µM | NCI-H522 21.6 µM | RXF 393 40.6 µM | SF-539 32.7 µM | SNB-75 > 100 µM | TK-10 > 100 µM | UO-31 47.5 µM

COc1cc(O)c(C(=O)C2Cc3ccccc32)c(OC)c1 (centres undefined)
inactive: A549 35.8 µM | ACHN 50.7 µM | CAKI-1 25.6 µM | CCRF-CEM 19.8 µM | HCC 2998 49.1 µM | HL-60 13 µM | K562 32.7 µM | KM12 32.4 µM | NCI-H226 22.6 µM | NCI-H522 32.7 µM | RXF 393 20.3 µM | SF-539 > 100 µM | SNB-75 37.7 µM | TK-10 > 100 µM | UO-31 33.5 µM
32.9 µM: HCT-15

CC1CCC2[C@@H](C)COC3O[C@]4(C)CCC1C32OO4 (some centres undefined)
inactive: A549 > 100 µM | ACHN > 100 µM | CAKI-1 > 100 µM | CCRF-CEM 5.15 µM | EKVX > 100 µM | HCC 2998 > 100 µM | K562 38.9 µM | KM12 > 100 µM | NCI-H226 > 100 µM | NCI-H522 > 100 µM | RXF 393 > 100 µM | SF-539 > 100 µM | SNB-75 91.6 µM | TK-10 > 100 µM | UO-31 54.1 µM
> 100 µM: HCT-15

O=c1[nH]c(=O)n(C2OC(CO)C(O)C2O)cc1/N=N/NCc1ccccc1 (centres undefined)
inactive: A549 > 100 µM | ACHN > 100 µM | CAKI-1 > 100 µM | CCRF-CEM > 69.5 µM | EKVX > 100 µM | HCC 2998 > 100 µM | HL-60 > 64.3 µM | K562 > 71.9 µM | KM12 > 100 µM | NCI-H226 > 100 µM | NCI-H522 > 100 µM | RXF 393 > 79.4 µM | SF-539 > 100 µM | SNB-75 > 100 µM | TK-10 > 100 µM | UO-31 > 100 µM
> 65 µM: HCT-15

Cc1nc(-c2ccccc2)cc2c1c(=O)oc1ccccc12
> 100 µM: HCT-15
inactive: A549 > 100 µM | ACHN > 100 µM | CAKI-1 > 100 µM | CCRF-CEM > 100 µM | EKVX > 100 µM | HCC 2998 > 100 µM | HL-60 > 100 µM | K562 > 100 µM | KM12 > 100 µM | NCI-H226 > 100 µM | NCI-H522 > 100 µM | RXF 393 > 100 µM | SF-539 > 100 µM | SNB-75 83.4 µM | UO-31 > 100 µM

CCCCCCCC(=O)OCC1OC(n2cc(F)c(=O)[nH]c2=O)C(N)C(OC(=O)CCCCCCC)C1O (centres undefined)
18.5 µM: HCT-15
inactive: A549 18.3 µM | ACHN 20.2 µM | CAKI-1 16.8 µM | CCRF-CEM 17.6 µM | EKVX 19.1 µM | HCC 2998 16.5 µM | HL-60 20.2 µM | KM12 21.2 µM | NCI-H522 14.5 µM | RXF 393 18 µM | SF-539 20.5 µM | SNB-75 15 µM | TK-10 23.4 µM | UO-31 19.5 µM

COc1ccc2cc3n(c(=O)c2c1)CCc1c-3cc(OC)c(OC)c1OC
> 100 µM: HCT-15
inactive: A549 > 100 µM | ACHN > 100 µM | CAKI-1 > 100 µM | CCRF-CEM > 100 µM | EKVX > 100 µM | HCC 2998 > 100 µM | HL-60 > 100 µM | K562 > 100 µM | NCI-H226 > 100 µM | NCI-H522 > 100 µM | SF-539 60 µM | SNB-75 34.7 µM | TK-10 > 100 µM | UO-31 > 100 µM

Cc1cc(NS(=O)(=O)c2ccc(NC(=O)c3cccn4c(=O)c5ccccc5nc34)cc2)no1
inactive: A549 > 100 µM | ACHN > 100 µM | CAKI-1 > 100 µM | CCRF-CEM > 100 µM | EKVX > 100 µM | HCC 2998 > 100 µM | HL-60 > 100 µM | K562 > 100 µM | KM12 > 100 µM | NCI-H226 > 100 µM | NCI-H522 > 100 µM | RXF 393 > 100 µM | SF-539 > 100 µM | SNB-75 > 100 µM | TK-10 > 100 µM | UO-31 > 100 µM

CC(=O)OCc1ncccc1C(OC(C)=O)OC(C)=O
> 100 µM: HCT-15
inactive: A549 > 100 µM | ACHN > 100 µM | CAKI-1 > 100 µM | CCRF-CEM > 100 µM | EKVX > 100 µM | HL-60 > 100 µM | K562 > 100 µM | KM12 > 100 µM | NCI-H522 > 100 µM | RXF 393 > 100 µM | SF-539 > 100 µM | SNB-75 > 100 µM | TK-10 > 100 µM | UO-31 > 100 µM

Cc1ncc(CCl)c2c1OC(C)(C)OC2
inactive: A549 > 100 µM | ACHN 21.3 µM | CCRF-CEM 47.8 µM | EKVX 20.5 µM | HCC 2998 > 100 µM | HL-60 27 µM | K562 41.2 µM | KM12 37.5 µM | NCI-H226 > 100 µM | NCI-H522 17 µM | RXF 393 16 µM | SF-539 33.6 µM | TK-10 > 100 µM | UO-31 > 100 µM

Nn1c(-c2ccccc2Cl)nc2ccccc2c1=O
> 100 µM: HCT-15
inactive: A549 > 100 µM | ACHN > 100 µM | CAKI-1 > 100 µM | CCRF-CEM > 100 µM | EKVX > 100 µM | HCC 2998 > 100 µM | HL-60 > 100 µM | K562 > 100 µM | KM12 > 100 µM | NCI-H226 57 µM | NCI-H522 > 100 µM | SF-539 > 100 µM | SNB-75 > 100 µM | TK-10 > 100 µM | UO-31 > 100 µM

N=C(N)NCCCC(NCc1c2ccccc2[n+]([O-])c2ccccc12)C(=O)O (centres undefined)
inactive: A549 > 100 µM | ACHN 42.7 µM | CAKI-1 60.8 µM | CCRF-CEM 24.5 µM | EKVX > 100 µM | HCC 2998 74.5 µM | HL-60 24.9 µM | K562 29.7 µM | KM12 50.8 µM | NCI-H226 35.5 µM | NCI-H522 27 µM | SNB-75 28.2 µM | TK-10 > 100 µM | UO-31 23.6 µM
32.9 µM: HCT-15

CN(C)CCN1CCc2c([nH]c3ccccc23)C1c1cccnc1 (centres undefined)
inactive: A549 > 100 µM | ACHN 23 µM | CAKI-1 > 100 µM | CCRF-CEM > 100 µM | EKVX > 100 µM | HCC 2998 > 100 µM | HL-60 > 100 µM | K562 > 100 µM | KM12 > 100 µM | NCI-H522 > 100 µM | RXF 393 20.2 µM | SF-539 > 100 µM | SNB-75 61.1 µM | TK-10 > 100 µM | UO-31 40.9 µM
> 100 µM: HCT-15

CCOc1ccc(OCC(=O)O)c2c1CCCC2=O
> 100 µM: HCT-15
inactive: A549 > 100 µM | ACHN > 100 µM | CCRF-CEM > 10 µM | EKVX > 100 µM | HCC 2998 > 100 µM | HL-60 > 100 µM | K562 > 10 µM | KM12 > 100 µM | NCI-H226 > 100 µM | NCI-H522 > 100 µM | RXF 393 > 100 µM | SF-539 > 100 µM | SNB-75 > 100 µM | TK-10 > 100 µM | UO-31 > 100 µM
